Assays:
Mus musculus [1] = assay: Anti-hyperuricemic activity against xanthine and potassium oxonate-induced acute hyperuricemia Kunming mouse model assessed as serum uric acid concentration at 10 mg/kg, po measured after 3 hrs (reference value: 846.22 uM); format: functional
[2] = molecular target: T1, Broad substrate specificity ATP-binding cassette transporter ABCG2 (Homo sapiens, UniProt Q9UNQ0); assay: Inhibition of ABCG2 (unknown origin) expressed in HEK293 cells membrane vesicles assessed as inhibition of ATP-induced 14C-uric acid uptake preincubated for 15 mins followed by incubation with ATP and substrate for 5 mins by liquid scintillation counting analysis; format: toxicity, cell membranes, Membrane vesicle
T1 sequence (Q9UNQ0 whole entry): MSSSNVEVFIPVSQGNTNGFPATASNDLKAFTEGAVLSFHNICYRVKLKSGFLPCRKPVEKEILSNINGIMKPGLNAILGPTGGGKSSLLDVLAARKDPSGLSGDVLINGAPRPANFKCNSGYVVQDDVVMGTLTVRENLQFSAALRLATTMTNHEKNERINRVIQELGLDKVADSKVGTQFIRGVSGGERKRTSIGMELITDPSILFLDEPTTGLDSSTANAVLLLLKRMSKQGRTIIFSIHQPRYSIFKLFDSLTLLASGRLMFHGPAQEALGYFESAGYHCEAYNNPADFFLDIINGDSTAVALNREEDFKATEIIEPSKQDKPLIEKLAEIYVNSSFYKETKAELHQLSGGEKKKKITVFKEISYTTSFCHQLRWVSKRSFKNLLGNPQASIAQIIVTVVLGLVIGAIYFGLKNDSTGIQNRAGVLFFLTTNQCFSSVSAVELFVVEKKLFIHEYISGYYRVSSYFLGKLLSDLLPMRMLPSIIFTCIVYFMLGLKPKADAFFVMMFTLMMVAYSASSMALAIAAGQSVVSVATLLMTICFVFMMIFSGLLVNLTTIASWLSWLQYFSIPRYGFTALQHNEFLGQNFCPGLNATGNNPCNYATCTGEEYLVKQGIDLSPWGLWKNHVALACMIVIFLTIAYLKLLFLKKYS

Mus musculus [3] = assay: Anti-hyperuricemic activity against xanthine and potassium oxonate-induced acute hyperuricemia Kunming mouse model assessed as increase in urine uric acid concentration at 10 mg/kg, po measured for 24 hrs; format: functional
[4] = Half life in Sprague-Dawley rat at 5 mg/kg, iv measured upto 36 hrs by LC-MS/MS analysis; format: ADME, organism-based; details: in vivo
[5] = MRT (0 to infinity) in Sprague-Dawley rat at 5 mg/kg, po by LC-MS/MS analysis; format: ADME, organism-based; details: in vivo
[6] = MRT (0 to infinity) in Sprague-Dawley rat at 5 mg/kg, iv by LC-MS/MS analysis; format: ADME, organism-based; details: in vivo
[7] = Cytotoxicity against human HK-2 cells assessed as reduction in cell viability incubated for 24 hrs by MTT assay; format: toxicity, cell-based
[8] = Cytotoxicity against human HK-2 cells assessed as reduction in cell viability incubated for 48 hrs by MTT assay; format: toxicity, cell-based
[9] = molecular target: T2, Solute carrier family 2, facilitated glucose transporter member 9 (Homo sapiens, UniProt Q9NRM0); assay: Inhibition of GLUT9 (unknown origin) expressed in HEK293T cells assessed as inhibition of uric acid-induced current by whole cell patch clamp technique; format: cell-based
T2 sequence (Q9NRM0 whole entry): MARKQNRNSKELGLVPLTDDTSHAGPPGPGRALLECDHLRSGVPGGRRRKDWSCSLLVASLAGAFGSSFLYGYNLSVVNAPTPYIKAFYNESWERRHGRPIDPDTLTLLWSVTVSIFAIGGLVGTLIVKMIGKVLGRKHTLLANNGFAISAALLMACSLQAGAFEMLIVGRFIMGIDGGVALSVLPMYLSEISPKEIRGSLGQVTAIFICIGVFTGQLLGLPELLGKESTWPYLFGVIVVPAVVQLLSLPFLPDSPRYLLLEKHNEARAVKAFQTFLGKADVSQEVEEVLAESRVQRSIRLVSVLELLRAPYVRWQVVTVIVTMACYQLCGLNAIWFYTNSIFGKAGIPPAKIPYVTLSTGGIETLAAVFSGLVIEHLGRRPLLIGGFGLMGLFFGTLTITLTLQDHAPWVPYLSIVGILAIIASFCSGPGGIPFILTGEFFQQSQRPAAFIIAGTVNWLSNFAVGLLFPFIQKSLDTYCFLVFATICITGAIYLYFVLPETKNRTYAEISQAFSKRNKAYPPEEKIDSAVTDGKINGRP

[10] = Renal toxicity in xanthine and potassium oxonate-induced acute hyperuricemia Kunming mouse model assessed as blood urea nitrogen level at 10 mg/kg, po measured after 3 hrs; format: organism-based; details: in vivo
[11] = Inhibition of URAT1 R487K mutant (unknown origin)-mediated 14C-uric acid uptake expressed in HEK293 cells using 14C-uric acid as substrate preincubated for 30 mins followed by substrate addition and measured after 15 mins by liquid scintillation counting analysis; format: cell-based; details: Homo sapiens
[12] = Inhibition of URAT1 F365Y mutant (unknown origin)-mediated 14C-uric acid uptake expressed in HEK293 cells using 14C-uric acid as substrate preincubated for 30 mins followed by substrate addition and measured after 15 mins by liquid scintillation counting analysis; format: cell-based; details: Homo sapiens

half-life [4]: 4.19 h | MRT inf [5]: 3.17 h | MRT inf [6]: 4.8 h | IC50 [9]: 9.37 µM | IC50 [11]: 1.89 µM | IC50 [12]: 1.57 µM
SMILES: N#Cc1ccc(Nc2cnccc2SCc2ccccc2C(=O)[O-])c2ccccc12.[Na+]
Activity (Mus musculus [1]): 645.8 µM | IC50 [2]: 26.7 µM | Activity (Mus musculus [3]): 2444.24 µM | IC50 at 24 h [7]: 208 µM | IC50 at 48 h [8]: 167 µM | Activity [10]: Non-Toxic

From ChEMBL document CHEMBL5154691, “Discovery of novel verinurad analogs as dual inhibitors of URAT1 and GLUT9 with improved Druggability for the treatment of hyperuricemia” (Eur J Med Chem, 2022)
